Laboratory results taken from patent US20130184270A1, “SUBSTITUTED 2,3-DIHYDROIMIDAZO[1,2-C]QUINAZOLINE-CONTAINING COMBINATIONS” (priority 2010, published 2013).
Read-outs that look alike come from different tables or passages of the source.

Legend:
[1] = test system: Lu7187 primary human tumor (NSCLC); conditions: for sensitivity of the model / T/C / animals with disease progression: Lu7187; for animals with disease progression: respective monotherapy groups
Experimental: (§1) The in vivo combination effects were evaluated in tumor xenograft models in nude mice with either established human tumor cell lines or patient-derived primary tumor models at the MTD and sub-MTD dosages.
Lu7187 primary human tumor was derived from a patient with NSCLC and was xenografted in nude mice. The tumor was propagated in vivo and tumor tissue from one in vivo passage was used for s.c. implantation in the inguinal region of male nude mice. Treatment was started when the tumors were approximately 0.1 cm^3 in size. Treatment was continued until progression of the tumors. Tumor diameters and body weight were monitored t weekly. cA* was dosed at 14 mg/kg, Q2D×10 from day 7 to day 25 (group C, H and I), or 10 mg/kg, BID×1 weekly on day 7, 14, 21 and 28. cB was dosed at either 12.5 mg/kg (group D, F and H), QD, or 25 mg/kg (group E, G and I), QD from day 7 to day 35.

[2] = test system: Lu7343 primary human tumor (NSCLC); test: patient-derived NSCLC xenograft model, cA plus paclitaxel (text: Lu7187; FIG. 5: Lu7343); format: in vivo, nude mice
Experimental: as §1
The synergistic combination of cA* and palitaxel was also confirmed in a patient-derived NSCLC xenograft model—Lu7187.
FIG. 5: Dose-dependent tumor growth inhibition in Lu7343 primary human xenograft NSCLC model. Lu7343 primary human tumor was derived from a patient with NSCLC and was xenografted in nude mice. The tumor was propagated in vivo and tumor tissue from one in vivo passage was used for s.c. implantation in the inguinal region of male nude mice. Treatment was started when the tumors were approximately 0.1 cm^3 in size. Treatment was continued until progression of the tumors. Tumor diameters and body weight were monitored t weekly. cA* was dosed at 10 mg/kg, BIDx1 weekly on day 15, 22, and 29. paclitaxel was dosed at either 15 mg/kg, or 25 mg/kg, once a week on day 14, 21 and day 28.

[3] = test system: NCI-H1975, NCI-H1650, HCT116, Colo205, MDA-MB-468 cell lines; test: caspase 3/7 activation assay, example (cell line not named); format: cell-based
Experimental: The effects of combinations of the present invention were evaluated using combination index isobologram analysis for in vitro assessment. The efficacy parameters were the effects in a 72-hour cell proliferation assay or in a 48-hour caspase 3/7 activation assay. Briefly, cells were plated in 384-well plate with 25 μL medium. […] Experiments were conducted in triplicates. The mapping EC50/IC50 and EC90/IC90 values were calculated using Analyze5 computer program. The corresponding component concentrations of cA and BB (either cB, or Lapatinib, or paclitaxel (as component B)) at the […] were calculated and used for plotting isobolograms. […] The dose-response curve of either cA* or cB alone, or cA* (as component A) plus cB (as component B) with the ratio indicated in the figure, where the top relative concentrations are defined as 1.

[4] = test system: Co5841 primary human tumor (CRC); test: Co5841 primary human xenograft CRC model; format: in vivo, nude mice
Experimental: as §1
FIG. 3: Dose-dependent tumor growth inhibition in Co5841 primary human xenograft CRC model. Co5841 primary human tumor was derived from a patient with CRC and was xenografted in nude mice. The tumor was propagated in vivo and tumor tissue from one in vivo passage was used for s.c. implantation in the inguinal region of male nude mice. Treatment was started when the tumors were approximately 0.1 cm^3 in size. Treatment was continued until progression of the tumors. Tumor diameters and body weight were monitored weekly. cA* was dosed at 14 mg/kg, Q2D×7 from day 6 to day 22 (group C, H and I), or 10 mg/kg, BID×1 weekly on day 6, 13, and 20. cB was dosed at either 12.5 mg/kg (group D, F and H), QD, […]

[5] = test system: CRC SW620 Tumor Cell Line; test: 72-hour cell proliferation assay (Cell Titer Glo), combination index; format: cell-based; conditions: Homo sapiens, SW-620; SW620, single agent, 90% inhibition not reached
Experimental: The effects of combinations of the present invention were evaluated using combination index isobologram analysis for in vitro assessment. The efficacy parameters were the effects in a 72-hour cell proliferation assay or in a 48-hour caspase 3/7 activation assay. Briefly, cells were plated in 384-well plate with 25 μL medium. […] Experiments were conducted in triplicates. The mapping EC50/IC50 and EC90/IC90 values were calculated using Analyze5 computer program. The corresponding component concentrations of cA and BB (either cB, or Lapatinib, or paclitaxel (as component B)) at the […] were calculated and used for plotting isobolograms. […] IC50 and IC90 refers to the IC50 and IC90 obtained from the dose-response curve of either cA* or cB alone, or cA* plus cB with the ratio indicated in the table, where the top relative concentration is defined as 1.

CC(=O)O[C@H]1C(=O)[C@@]2(C)[C@H]([C@H](OC(=O)c3ccccc3)[C@]3(O)C[C@H](OC(=O)[C@H](O)[C@@H](NC(=O)c4ccccc4)c4ccccc4)C(C)=C1C3(C)C)[C@]1(OC(C)=O)CO[C@@H]1C[C@@H]2O [Paclitaxel]
sensitivity of the model [1]: resistant
single agent efficacy ([2]; paclitaxel 25 mg/kg (MTD)): very efficacious
mice with disease progression after stopping the treatment ([2]; paclitaxel 25 mg/kg single agent): 60%

COc1c(OCCCN2CCOCC2)ccc2c1N=C(NC(=O)c1cnc(N)nc1)N1CCN=C21 [cA, 2-amino-N-[7-methoxy-8-(3-morpholin-4-ylpropoxy)-2,3-dihydroimidazo[1,2-c]quinazolin-5-yl]pyrimidine-5-carboxamide]
induction of apoptosis (caspase 3/7), single agent ([3]; 5 μM): Neither 10 μM of cB nor 5 μM of cA as single agents could induce apoptosis
T/C ([4]; cA 10 mg/kg BID weekly (day 6, 13, 20)): 0.49
animals with disease progression (DP) ([4]; cA 10 mg/kg BID weekly monotherapy): 90%
animals with disease progression (DP) ([4]; cA 14 mg/kg Q2D monotherapy): 100%
T/C ([4]; cA 14 mg/kg Q2D, day 6 to 22): 0.39
T/C ([1]; cA 10 mg/kg BID weekly (day 7, 14, 21, 28)): 0.88
animals with disease progression [1]: 100%
body weight loss of weekly dosing compared with Q2D dosing ([1]; mouse, in vivo): less body weight loss
IC90 [5]: > 5 µM

COc1cc(F)c(F)c(Nc2ccc(I)cc2F)c1NS(=O)(=O)C1(C[C@H](O)CO)CC1 [cB, (S)—N-(3,4-difluoro-2-(2-fluoro-4-iodophenylamino)-6-methoxyphenyl)-1-(2,3-dihydroxypropyl)cyclopropane-1-sulfonamide]
induction of apoptosis (caspase 3/7), single agent ([3]; 10 μM): Neither 10 μM of cB nor 5 μM of cA as single agents could induce apoptosis
T/C ([4]; cB 12.5 mg/kg daily, day 6 to 23): 0.35
animals with disease progression (DP) ([4]; cB 25 mg/kg monotherapy): 70%
T/C ([1]; cB 12.5 mg/kg daily, day 7 to 35): 0.46
T/C ([1]; cB 25 mg/kg daily, day 7 to 35): 0.31
animals with disease progression [1]: 100%
IC90 [5]: > 5 µM

C#Cc1cccc(Nc2ncnc3cc(OCCOC)c(OCCOC)cc23)c1 [erlotinib, reference compound]
sensitivity of the model [1]: resistant

COc1cc([C@@H]2c3cc4c(cc3[C@@H](O[C@@H]3O[C@@H]5CO[C@@H](C)O[C@H]5[C@H](O)[C@H]3O)[C@H]3COC(=O)[C@H]23)OCO4)cc(OC)c1O [etoposid, reference compound]
sensitivity of the model [1]: resistant
